In ChEMBL document CHEMBL1777704, “Identification and synthesis of N'-(2-oxoindolin-3-ylidene)hydrazide derivatives against c-Met kinase” (Bioorg Med Chem Lett, 2011) one finds IC50 data, which are given here for eleven compounds.

Chain of Hepatocyte growth factor receptor (P08581 whole entry): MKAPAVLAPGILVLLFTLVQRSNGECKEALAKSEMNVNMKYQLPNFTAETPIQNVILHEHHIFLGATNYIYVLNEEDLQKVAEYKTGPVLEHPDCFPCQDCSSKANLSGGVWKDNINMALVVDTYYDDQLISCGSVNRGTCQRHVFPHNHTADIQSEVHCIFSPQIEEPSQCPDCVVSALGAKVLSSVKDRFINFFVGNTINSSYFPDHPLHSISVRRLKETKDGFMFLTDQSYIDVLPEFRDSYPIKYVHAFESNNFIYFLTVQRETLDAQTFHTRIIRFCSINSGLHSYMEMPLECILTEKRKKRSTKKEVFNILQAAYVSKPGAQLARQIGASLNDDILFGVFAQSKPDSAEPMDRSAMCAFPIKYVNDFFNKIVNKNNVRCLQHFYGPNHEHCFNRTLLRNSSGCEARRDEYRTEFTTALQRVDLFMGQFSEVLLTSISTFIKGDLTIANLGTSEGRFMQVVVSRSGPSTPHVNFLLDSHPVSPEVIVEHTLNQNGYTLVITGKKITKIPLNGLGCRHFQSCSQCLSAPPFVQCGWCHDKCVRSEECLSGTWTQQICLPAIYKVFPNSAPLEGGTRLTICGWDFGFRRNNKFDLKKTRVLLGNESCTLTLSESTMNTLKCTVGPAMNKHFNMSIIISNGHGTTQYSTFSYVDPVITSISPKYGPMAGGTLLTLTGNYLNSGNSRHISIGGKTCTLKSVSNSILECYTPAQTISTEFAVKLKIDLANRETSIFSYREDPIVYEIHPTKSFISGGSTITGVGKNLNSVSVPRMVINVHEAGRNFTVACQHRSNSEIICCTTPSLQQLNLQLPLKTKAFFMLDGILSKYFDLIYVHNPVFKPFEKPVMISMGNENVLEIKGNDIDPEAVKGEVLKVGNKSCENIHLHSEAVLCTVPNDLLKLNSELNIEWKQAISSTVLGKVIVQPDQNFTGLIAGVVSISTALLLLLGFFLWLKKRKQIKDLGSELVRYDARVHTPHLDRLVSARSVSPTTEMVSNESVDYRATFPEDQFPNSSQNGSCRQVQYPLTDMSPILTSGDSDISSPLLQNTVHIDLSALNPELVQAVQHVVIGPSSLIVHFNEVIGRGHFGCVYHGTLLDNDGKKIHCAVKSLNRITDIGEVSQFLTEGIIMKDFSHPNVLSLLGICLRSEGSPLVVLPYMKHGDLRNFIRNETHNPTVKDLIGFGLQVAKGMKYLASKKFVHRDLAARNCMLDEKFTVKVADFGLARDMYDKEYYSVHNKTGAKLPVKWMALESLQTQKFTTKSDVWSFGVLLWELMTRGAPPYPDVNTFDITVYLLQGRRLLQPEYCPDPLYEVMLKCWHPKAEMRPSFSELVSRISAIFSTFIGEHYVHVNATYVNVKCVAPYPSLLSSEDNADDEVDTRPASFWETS

The assay concerns the target Hepatocyte growth factor receptor (Homo sapiens, UniProt P08581). The assay is described as follows: Inhibition of purified c-Met using poly(glu,tyr) as substrate after 60 mins by ELISA. In general terms: In an ELISA, binding on a coated surface is turned into a signal by an enzyme label.
One may read the IC50 as the point on the concentration scale where inhibition reaches its midpoint. A low value points to greater potency. Consider `CN1C(=O)/C(=N\NC(=O)c2cccc(C(=O)N/N=C3/C(=O)N(C)c4ccccc43)c2)c2ccccc21`, for which 10.3 µM corresponded to half-maximal inhibition (IC50).

Consider `Cc1cccc(C(=O)Nc2ccc(C(=O)N/N=C3\C(=O)Nc4ccccc43)cc2)c1`, for which it took 1.3 µM to reach half-maximal inhibition (IC50).

The compound `COc1ccc(C(=O)COC(=O)c2ccc3c(c2)C(=O)N(c2ccc(C(C)=O)cc2)C3=O)cc1` showed a half-maximal inhibitory concentration (IC50) of 3.7 µM.

Take `O=[N+]([O-])c1cc(-c2ccc(/C=N\n3cnnc3N/N=C/c3ccc(-c4ccc(Cl)c([N+](=O)[O-])c4)o3)o2)ccc1Cl`: the concentration for half-maximal inhibition (IC50) stood at 3.3 µM.

Compound `O=C(CCCCCC(=O)N/N=C/c1cc2c(cc1[N+](=O)[O-])OCO2)N/N=C/c1cc2c(cc1[N+](=O)[O-])OCO2` gave a concentration for half-maximal inhibition (IC50) of 0.78 µM.

Turning to `O=C1Nc2ccccc2C1=NNC(=O)c1ccc([N+](=O)[O-])cc1`, it took 28.3 µM to reach half-maximal inhibition (IC50). This IC50 is about 36-fold higher than that of the compound before.

On to `O=C1Nc2ccccc2/C1=N/NC(=O)c1cc2ccccc2cc1O`, for which the IC50 worked out at 4.3 µM.

`CN1C(=O)/C(=N\NC(=O)c2ccc([N+](=O)[O-])cc2)c2ccccc21` registered an IC50 of 12.3 µM.

`Cc1ccc(NC(=O)CN2C(=O)/C(=N\NC(=O)c3ccc(N)cc3)c3ccccc32)cc1` yielded an IC50 of 15.8 µM.

Regarding `O=C(N/N=C1\C(=O)N(CN2CCOCC2)c2ccc(Br)cc21)c1ccccc1`, the concentration for half-maximal inhibition (IC50) came to 3.5 µM.

The compound `COc1ccc(C(=O)N/N=C2\C(=O)N(CN3CCOCC3)c3ccc(Br)cc32)cc1` yielded a concentration for half-maximal inhibition (IC50) of 2.2 µM. Compared with the last compound, the IC50 is about 1.6-fold lower.
